Measured values from patent publication US20160274087A1, “SCREENING ASSAY FOR AGENTS THAT INFLUENCE BETA CELL NUMBER AND/OR PHENOTYPE” (VRIJE UNIVERSITEIT BRUSSEL, priority 2013, published 2016).

Legend:
rat beta cells [1] = experiment: Beta cell DNA synthesis/proliferation by EdU (and BrdU) incorporation, incl. LOPAC screen; assay type: cell-based; settings: for effect on 6MP induced DNA-synthesis and increase in cell numbers: JSH-23 10 μM, Bay11-7085 5 μM
Experimental: (§1) On day 1, 9 and 15 of culture, total numbers of living beta cells per well were determined by semi-automatic cell count, after Hoechst 33342 (Ho) and propidium iodide (PI) staining. Numbers of living beta cells were obtained by subtracting the PI-positive cell numbers from the Ho-positive cell numbers, and correcting for the percent insulin-negative cells, as determined following insulin-immunofluorescence staining. They were expressed as percent of the numbers on day 1. Each condition was also evaluated for increases in the percentage of proliferating beta cells (incorporating the thymidine-analogue 5-ethynyl-2′-deoxyuridine, EdU; 100 μmol/l). To detect beta cells that underwent two successive cycles, cells were sequentially exposed to two different thymidine-analogs, first EdU from day 3 to 6, and then BrdU (100 μmol/l) from day 7 to 10, with a 24-hour label-free period in between. EdU-positive (EdU^+) nuclei were detected with the Click-iT Assay kit (Invitrogen), while BrdU-positive (BrdU^+) nuclei were identified with anti-BrdU antibody.
Freshly purified beta cells were cultured in control medium for 24 h prior to the addition of the LOPAC test compounds (day 1). The culture medium was refreshed on day 3 and the cells were then cultured further with 5-ethynyl-2′-deoxyuridine (EdU; 10 μM) up to day 6. Cell viability and percentage EdU incorporation were quantified after imaging and image analysis using the BD Pathway Bioimager, as described before (Assefa et al., 2014). To test the significance of compound effect on beta cell proliferation, average Z-score for each compound was calculated and a cut-off for potential positive hits was set at a Z-score of greater than three standard deviations. Thus, a compound is considered a hit only if it increases the percent EdU incorporation to above three standard deviation of the plate-averaged percent EdU incorporation.
(§2) Sorted beta cells were seeded in 384-well or 6-well plates coated with 804G matrix, and kept in culture for up to 15 days at 37° C. 5% CO2 using Ham F10 supplemented with 1 mM L-glutamine, 0.1 mg/ml streptomycin, 0.075 mg/ml penicillin, 50 μM of isobutyl-1-methylxanthine (IBMX) at 10 mM D-glucose with and without synthetic GCs (6 methyl-prednisolone (6MP), dexamethasone (DEX), GR-modulators (compound A (CPA), mifepristone (MIF), and NFκB inhibitors (JSH-23 en Bay11-7085). Total cell number and beta cell viability was evaluated after incubation with Hoechst 33342 and propidium iodide. All chemicals were from Sigma Life Sciences or Merck. Quantification of cell numbers and analysis of beta-cell viability was done using the Pathway Bioimager (BD Biosciences) and using IPlab and Attovision software for background subtraction as described prior (Assefa et al., 2014). Replicating beta cells were quantified after 24 or 72 hrs incubation with 5-ethynyl-2′-deoxyuridine (EdU, a thymidine analog) using the ClickIT EDU Alexa Fluor assay (Invitrogen). EdU-positive cells were expressed as percentage of total cell number.

rat beta cells [2] = experiment: Number of living beta cells in culture (Hoechst 33342/propidium iodide whole-well imaging counts; expansion assay); assay type: cell-based; settings: for Number of Living Cells on Day 15 (% of Day 1): control 101 ± 7; for concentration giving maximal inhibition / prevention of DEX-stimulated increase of beta cell numbers: with 0.01 μM DEX, d1 to d15
Experimental: Beta cells were FACS-purified from islet-cell enriched suspensions (Pipeleers et al., 1985) prepared from neonatal (2-3 days-old) and adolescent or adult (8 or 40-week-old, male) Wistar rats (Janvier Bioservices, France); their purity was, respectively 70-75% and over 90%. Sorted cells were counted in a hemocytometer, seeded (day 0) and cultured for up to 15 days in serum-free Ham's-F10 medium at 5, 10 or 20 mmol/l glucose, supplemented with 2 mmol/l L-glutamine, 50 μM 3-isobutyl-1-methylxanthine, 0.5% Albumax-I, penicillin (100 U/ml) and streptomycin (0.1 mg/ml). The 10 mmol/l glucose condition is known to maintain beta cell survival over 9-days (Ling et al., 1994; Ling and Pipeleers, 1994). Medium and cells were retrieved after selected culture periods and assayed for insulin content; data were expressed as a function of the number of living beta cells that was determined in parallel wells.
as §1
Absolute number of cells was determined by whole-well imaging using the BD-PathwayBioimager855 (BD-Biosciences). IPLab and AttoVision software packages (BD-Biosciences) were used for image background subtraction, segmentation and quantification.
Experimental procedures for isolation of beta cells from neonatal (2-3 days old) and adult (8 or 40 week old, male) Wistar rats (Janvier Bioservices, France) and analysis of their number, viability and proliferation activity in culture have been described before (Assefa et al., 2014). Sorted beta cells were seeded in 804G matrix-coated plates (designated as day 0) and the numbers and viability of seeded cells at the start of all experiments were determined on day 1 (24 h after seeding). The cells were cultured in control medium, which is a serum-free Ham's F10 medium supplemented with 2 mM L-glutamine, 50 μM 3-isobutyl-1-methylxanthine, 0.5% Albumax I, penicillin (100 U/ml), streptomycin (0.1 mg/ml) and, unless indicated otherwise, 10 mM glucose.
as §2, with “2014).” for “2014). Replicating beta cells were quantified after 24 or 72 hrs incubation with 5-ethynyl-2′-deoxyuridine (EdU, a thymidine analog) using the ClickIT EDU Alexa Fluor assay (Invitrogen). EdU-positive cells were expressed as percentage of total cell number.”

[3] = test system: GR trans-repression and trans-activation targets, cell cycle genes and beta cell phenotype markers; experiment: Q-PCR of mRNA levels in cultured beta cells; assay type: cell-based, rat; settings: for effect on ICAM1 mRNA levels: NFkB-inhibitors, relative to vehicle control
[4] = 9 days culture, 1 μM 6MP, 1 μM MIF, 0.5 μM CPA, vehicle = 1.0
[5] = control medium + compound 1 μM, 15 days

Molecule: COC(=O)C1=C(C)NC(C)=C([N+](=O)[O-])C1c1ccccc1C(F)(F)F (racemic) [(±)-Bay K 8644]
- hit status in LOPAC screen based on Z-scores (rat beta cells [1]; 1 μM, adult rat beta cells): potential inducers of beta cell proliferation

Molecule: C[C@]12CCC(=O)C=C1CC[C@@H]1[C@@H]2[C@@H](O)C[C@]2(C=O)[C@@H](C(=O)CO)CC[C@@H]12 [Aldosterone, aldosterone]
- Number of Living Cells on Day 15 (% of Day 1) (rat beta cells [2]; control medium + compound 0.1 μM, 15 days): 112 ± 5 % of Day 1

Molecule: CC(C)(C)c1ccc(S(=O)(=O)/C=C/C#N)cc1 [Bay11-7085]
- effect on 6MP induced DNA-synthesis and increase in cell numbers (rat beta cells [1]): does not inhibit
- effect on ICAM1 mRNA levels [3]: suppressing

Molecule: CNCC(Cl)c1ccc(OC(C)=O)cc1.Cl (stereo not drawn) [CPA]
- change of beta cell numbers between day 1 and 15 (rat beta cells [2]; 6MP 1 μM, DEX 0.01 μM, CPA 0.5 μM): no change of beta cell numbers
- concentration giving maximal inhibition / prevention of DEX-stimulated increase of beta cell numbers (rat beta cells [2]): 0.5 µM
- CDK4 mRNA level (ΔΔCt values relative to basal vehicle control) [3, 4]: 1.1 ± 0.2
- CXCL11 mRNA level (ΔΔCt values relative to basal vehicle control) [3, 4]: 1.1 ± 0.3
- Cyclin B1 mRNA level (ΔΔCt values relative to basal vehicle control) [3, 4]: 0.8 ± 0.4
- Cyclin B2 mRNA level (ΔΔCt values relative to basal vehicle control) [3, 4]: 0.5 ± 0.1^2
- Cyclin E1 mRNA level (ΔΔCt values relative to basal vehicle control) [3, 4]: 1.0 ± 0.1
- CyclinD1 mRNA level (ΔΔCt values relative to basal vehicle control) [3, 4]: 0.7 ± 0.1^1
- DLK1 mRNA level (ΔΔCt values relative to basal vehicle control) [3, 4]: 1.4 ± 0.4
- FKBP4 mRNA level (ΔΔCt values relative to basal vehicle control) [3, 4]: 0.9 ± 0.2
- FKBP5 mRNA level (ΔΔCt values relative to basal vehicle control) [3, 4]: 1.3 ± 0.1
- GDF11 mRNA level (ΔΔCt values relative to basal vehicle control) [3, 4]: 0.7 ± 0.1
- ICAM1 mRNA level (ΔΔCt values relative to basal vehicle control) [3, 4]: 0.3 ± 0.1^3
- MKP1 mRNA level (ΔΔCt values relative to basal vehicle control) [3, 4]: 2.7 ± 1.1
- MafA mRNA level (ΔΔCt values relative to basal vehicle control) [3, 4]: 0.4 ± 0.1^3
- MafB mRNA level (ΔΔCt values relative to basal vehicle control) [3, 4]: 1.4 ± 0.5
- NNAT mRNA level (ΔΔCt values relative to basal vehicle control) [3, 4]: 0.6 ± 0.1
- NPY mRNA level (ΔΔCt values relative to basal vehicle control) [3, 4]: 1.1 ± 0.3
- NR3C1 mRNA level (ΔΔCt values relative to basal vehicle control) [3, 4]: 1.0 ± 0.1
- Pdx1 mRNA level (ΔΔCt values relative to basal vehicle control) [3, 4]: 0.8 ± 0.1
- TRH mRNA level (ΔΔCt values relative to basal vehicle control) [3, 4]: 1.2 ± 0.6

Molecule: Cc1ccc(NCCCc2ccccc2)c(N)c1 [JSH-23]
- effect on 6MP induced DNA-synthesis and increase in cell numbers (rat beta cells [1]): does not inhibit
- effect on ICAM1 mRNA levels [3]: suppressing

Molecule: CC#C[C@]1(O)CC[C@H]2[C@@H]3CCC4=CC(=O)CCC4=C3[C@@H](c3ccc(N(C)C)cc3)C[C@@]21C [MIF, mifepristone]
- effect on 6MP/DEX-stimulated increase of cell numbers (rat beta cells [2]; MIF 1 μM): inhibited
- Number of Living Cells on Day 15 (% of Day 1) (rat beta cells [2]; [5]): 104 ± 5 % of Day 1
- concentration giving maximal inhibition / prevention of DEX-stimulated increase of beta cell numbers (rat beta cells [2]): 0.1 µM
- CDK4 mRNA level (ΔΔCt values relative to basal vehicle control) [3, 4]: 1.3 ± 0.2
- CXCL11 mRNA level (ΔΔCt values relative to basal vehicle control) [3, 4]: 1.5 ± 0.6
- Cyclin B1 mRNA level (ΔΔCt values relative to basal vehicle control) [3, 4]: 1.0 ± 0.3
- Cyclin B2 mRNA level (ΔΔCt values relative to basal vehicle control) [3, 4]: 0.6 ± 0.1^1
- CyclinD1 mRNA level (ΔΔCt values relative to basal vehicle control) [3, 4]: 1.0 ± 0.1
- DLK1 mRNA level (ΔΔCt values relative to basal vehicle control) [3, 4]: 0.9 ± 0.2
- FKBP4 mRNA level (ΔΔCt values relative to basal vehicle control) [3, 4]: 0.7 ± 0.2
- FKBP5 mRNA level (ΔΔCt values relative to basal vehicle control) [3, 4]: 0.7 ± 0.2
- MKP1 mRNA level (ΔΔCt values relative to basal vehicle control) [3, 4]: 1.3 ± 0.0
- MafA mRNA level (ΔΔCt values relative to basal vehicle control) [3, 4]: 1.1 ± 0.3
- MafB mRNA level (ΔΔCt values relative to basal vehicle control) [3, 4]: 0.6 ± 0.2
- NPY mRNA level (ΔΔCt values relative to basal vehicle control) [3, 4]: 0.8 ± 0.0
- NR3C1 mRNA level (ΔΔCt values relative to basal vehicle control) [3, 4]: 1.1 ± 0.1
- Pdx1 mRNA level (ΔΔCt values relative to basal vehicle control) [3, 4]: 1.1 ± 0.3

Molecule: CC(=O)S[C@@H]1CC2=CC(=O)CC[C@]2(C)[C@H]2CC[C@@]3(C)[C@@H](CC[C@@]34CCC(=O)O4)[C@H]12 [Spironolactone, spironolactone]
- Number of Living Cells on Day 15 (% of Day 1) (rat beta cells [2]; [5]): 105 ± 5 % of Day 1

Molecule: O=C(CO)[C@@H](O)[C@@H](O)[C@H](O)[C@H](O)CO [mannoheptulose]
- baseline and GC-induced proliferation of beta cells (rat beta cells [1]; competitive inhibition of GK, data not shown): reduces

B1: GDF11: secretory factor added to beta cell culture (10 nM) (protein, UniProt O95390 299-407, looked up)
Growth/differentiation factor …: NLGLDCDEHSSESRCCRYPLTVDFEAFGWDWIIAPKRYKANYCSGQCEYMFMQKYPHTHLVQQANPRGSAGPCCTPTKMSPINMLYFNDKQQIIYGKIPGMVVDRCGCS
- effect on cell numbers in combination with 6MP (rat beta cells [2]; 15 days, 6MP 1 μM, GDF11 10 nM, TRH 5 nM): suppressed proliferation
- effect on cell numbers under basal conditions (rat beta cells [2]; 15 days, DLK1 0.5 μM, GDF11 10 nM, TRH 5 nM): modest increase of cell numbers
